Source: patent publication US10941157B2, “Pesticidal compositions and uses thereof” (Gilead Apollo, LLC, priority 2015, dated 2021)
≈ marks a conversion by molar mass, not a printed value. Where two headings read alike, the source gives them in different places.

What was measured:
Assay type in all cases: cell-based
[1] = tested on: Rhizoctonia solani (Rs); assay: In vitro pathogen growth inhibition assay, Rs (mycelial plugs); conditions: Rhizoctonia solani, 48 h
Method in brief: (§1)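 Spores of Dm, Fv and Pc were diluted in 17% V8 liquid medium; Rs used 1.5 mm mycelial plugs in ¼ PDB. Compounds from 2.5 mg/ml DMSO stocks were combined with inoculum, growth was read by OD600 at 24 and 48 h with blank subtraction, and the reported value is the concentration giving ≥90% inhibition.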

[2] = tested on: Diplodia maydis (Dm); assay: In vitro pathogen growth inhibition assay, Dm; conditions: Stenocarpella maydis, 48 h
Method in brief: as §1

[3] = tested on: Phytophthora capsici (Pc); assay: In vitro pathogen growth inhibition assay, Pc; conditions: 48 h
Method in brief: as §1

[4] = tested on: Botrtyis cinerea (Bc); assay: In vitro pathogen growth inhibition assay, Bc; conditions: 48 h
Method in brief: (§2)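 Spores in 17% V8 liquid medium, or 1.5 mm Rs mycelial plugs in ¼ PDB, incubated with compound; final concentration checked by OD600 for precipitation. OD readings at 24 and 48 h, blank-subtracted, plus visual ratings; value is concentration giving ≥90% growth inhibition.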

[5] = tested on: Collectotrichum graminicola (Cg); assay: In vitro pathogen growth inhibition assay, Cg; conditions: 48 h
Method in brief: as §2

[6] = tested on: Fusarium moniliforme (Fm); assay: In vitro pathogen growth inhibition assay, Fm; conditions: Fusarium verticillioides
Method in brief: as §2

[7] = tested on: Septoria tritici (St); assay: In vitro pathogen growth inhibition assay, St; conditions: Zymoseptoria tritici, 48 h
Method in brief: as §2

[8] = tested on: Fusarium virguliforme (Fv); assay: In vitro pathogen growth inhibition assay, Fv
Method in brief: as §1

[9] = ≥90% inhibition, mycelial plugs, 48 hours vs 2% DMSO control, read-out: Compound Concentration (ppm) sufficient for ≥90% inhibition of growth, Rs
[10] = ≥90% inhibition, 48 hours vs 2% DMSO control, read-out: Compound Concentration (ppm) sufficient for ≥90% inhibition of growth, Dm
[11] = ≥90% inhibition, 48 hours vs 2% DMSO control, read-out: Compound Concentration (ppm) sufficient for ≥90% inhibition of growth, Pc
[12] = ≥90% inhibition, 48 hours vs 2% DMSO control, read-out: Compound Concentration (ppm) sufficient for ≥90% inhibition of growth, Bc
[13] = ≥90% inhibition, 48 hours vs 2% DMSO control, read-out: Compound Concentration (ppm) sufficient for ≥90% inhibition of growth, Cg
[14] = ≥90% inhibition, 48 hours vs 2% DMSO control, read-out: Compound Concentration (ppm) sufficient for ≥90% inhibition of growth, Fm
[15] = ≥90% inhibition, 48 hours vs 2% DMSO control, read-out: Compound Concentration (ppm) sufficient for ≥90% inhibition of growth, St
[16] = ≥90% inhibition, 48 hours vs 2% DMSO control, read-out: Compound Concentration (ppm) sufficient for ≥90% inhibition of growth, Fv
[17] = ≥90% growth inhibition, mycelial plugs, 48 hours, vs 2% DMSO control, read-out: Compound Concentration (ppm) sufficient for ≥90% inhibition of Rs
[18] = ≥90% growth inhibition, 48 hours, vs 2% DMSO control, read-out: Compound Concentration (ppm) sufficient for ≥90% inhibition of Dm
[19] = ≥90% growth inhibition, 48 hours, vs 2% DMSO control, read-out: Compound Concentration (ppm) sufficient for ≥90% inhibition of Pc
[20] = ≥90% growth inhibition, 48 hours, vs 2% DMSO control, read-out: Compound Concentration (ppm) sufficient for ≥90% inhibition of Bc
[21] = ≥90% growth inhibition, 48 hours, vs 2% DMSO control, read-out: Compound Concentration (ppm) sufficient for ≥90% inhibition of Cg
[22] = ≥90% growth inhibition, 48 hours, vs 2% DMSO control, read-out: Compound Concentration (ppm) sufficient for ≥90% inhibition of Fm
[23] = ≥90% growth inhibition, 48 hours, vs 2% DMSO control, read-out: Compound Concentration (ppm) sufficient for ≥90% inhibition of St
[24] = ≥90% growth inhibition, 48 hours, vs 2% DMSO control, read-out: Compound Concentration (ppm) sufficient for ≥90% inhibition of Fv

| SMILES | IC90 [1, 9] [µg/mL] | IC90 [2, 10] [µg/mL] | IC90 [3, 11] [µg/mL] | IC90 [4, 12] [µg/mL] | IC90 [5, 13] [µg/mL] | IC90 [6, 14] [µg/mL] | IC90 [7, 15] [µg/mL] | IC90 [8, 16] [µg/mL] | IC90 [1, 17] [µg/mL] | IC90 [2, 18] [µg/mL] | IC90 [3, 19] [µg/mL] | IC90 [4, 20] [µg/mL] | IC90 [5, 21] [µg/mL] | IC90 [6, 22] [µg/mL] | IC90 [7, 23] [µg/mL] | IC90 [8, 24] [µg/mL] | also measured |
| --- | --- | --- | --- | --- | --- | --- | --- | --- | --- | --- | --- | --- | --- | --- | --- | --- | --- |
| COc1ccc(F)cc1[C@H](Cn1c(=O)n([C@@H](C)C(N)=O)c(=O)c2c(C)c(-n3nccn3)sc21)OCCC#N [Compound I-199] |  |  |  |  |  |  |  |  |  |  |  |  |  |  |  |  | IC90 ([1]; concentration sufficient to ≥90% inhibition of growth, 48 hours vs 2% DMSO control, read-out: Compound Concentration (ppm) for ≥90% inhibition, Rs): 50 µg/mL (≈ 92.3 µM); IC90 ([2]; concentration sufficient to ≥90% inhibition of growth, 48 hours vs 2% DMSO control, read-out: Compound Concentration (ppm) for ≥90% inhibition, Dm): 50 µg/mL (≈ 92.3 µM); IC90 ([3]; concentration sufficient to ≥90% inhibition of growth, 48 hours vs 2% DMSO control, read-out: Compound Concentration (ppm) for ≥90% inhibition, Pc): > 50 µg/mL; IC90 ([4]; concentration sufficient to ≥90% inhibition of growth, 48 hours vs 2% DMSO control, read-out: Compound Concentration (ppm) for ≥90% inhibition, Bc): 10 µg/mL (≈ 18.5 µM); IC90 ([5]; concentration sufficient to ≥90% inhibition of growth, 48 hours vs 2% DMSO control, read-out: Compound Concentration (ppm) for ≥90% inhibition, Cg): 50 µg/mL (≈ 92.3 µM); IC90 ([6]; concentration sufficient to ≥90% inhibition of growth, 48 hours vs 2% DMSO control, read-out: Compound Concentration (ppm) for ≥90% inhibition, Fm): 10 µg/mL (≈ 18.5 µM); IC90 ([7]; concentration sufficient to ≥90% inhibition of growth, 48 hours vs 2% DMSO control, read-out: Compound Concentration (ppm) for ≥90% inhibition, St): > 50 µg/mL; IC90 ([8]; concentration sufficient to ≥90% inhibition of growth, 48 hours vs 2% DMSO control, read-out: Compound Concentration (ppm) for ≥90% inhibition, Fv): 10 µg/mL (≈ 18.5 µM) |
| COc1ccc(F)cc1[C@H](Cn1c(=O)n(CC(=O)N2CCCC2)c(=O)c2c(C)c(-n3nccn3)sc21)OCCO [Compound I-088] | 0.08 (≈ 0.14 µM) | 2 (≈ 3.49 µM) | > 50 | 0.08 (≈ 0.14 µM) | 2 (≈ 3.49 µM) | 0.08 (≈ 0.14 µM) | > 50 | 0.4 (≈ 0.699 µM) |  |  |  |  |  |  |  |  |  |
| COc1ccc(F)cc1[C@H](Cn1c(=O)n(C(C)(C)C(=O)N2CCCC2)c(=O)c2c(C)c(-n3nccn3)sc21)OCC(C)C [Compound I-028] | 0.08 (≈ 0.131 µM) | ≥ 0.08 | > 50 | 0.4 (≈ 0.653 µM) | 0.08 (≈ 0.131 µM) | 0.08 (≈ 0.131 µM) | ≥ 2 | 0.4 (≈ 0.653 µM) |  |  |  |  |  |  |  |  |  |
| COc1ccc(F)cc1[C@H](Cn1c(=O)n(C(C)(C)C(=O)NC(C)C)c(=O)c2c(C)c(-n3cccn3)sc21)OCCS(C)(=O)=O [Compound I-286] |  |  |  |  |  |  |  |  | 2 (≈ 3.08 µM) | ≥ 50 | ≥ 50 | 2 (≈ 3.08 µM) | 2 (≈ 3.08 µM) | 2 (≈ 3.08 µM) | > 50 | 2 (≈ 3.08 µM) |  |
| Cc1c(-n2nccn2)sc2c1c(=O)n(C(C)(C)C(=O)NC(C)C)c(=O)n2CCc1cc(F)ccc1OC1CCOCC1 [Compound I-331] |  |  |  |  |  |  |  |  | 10 (≈ 16.7 µM) | > 50 | > 50 | 2 (≈ 3.34 µM) | 10 (≈ 16.7 µM) | 0.08 (≈ 0.134 µM) | > 50 | 0.08 (≈ 0.134 µM) |  |
| CCNC(=O)C(C)(C)n1c(=O)c2c(C)c(-n3cccn3)sc2n(C[C@H](OCCC#N)c2cc(F)ccc2OC)c1=O [Compound I-235] |  |  |  |  |  |  |  |  | 2 (≈ 3.43 µM) | ≥ 2 | > 50 | 2 (≈ 3.43 µM) | 2 (≈ 3.43 µM) | 0.4 (≈ 0.687 µM) | > 50 | 2 (≈ 3.43 µM) |  |
| COc1ccc(F)cc1[C@H](Cn1c(=O)n(C(C)(C)C(=O)NC(C)C)c(=O)c2c(C)c(-n3nccn3)sc21)O[C@H]1CC[C@@H](O)CC1 [Compound I-264] |  |  |  |  |  |  |  |  | 0.08 (≈ 0.124 µM) | 2 (≈ 3.11 µM) | 50 (≈ 77.8 µM) | 0.4 (≈ 0.622 µM) | 2 (≈ 3.11 µM) | 0.08 (≈ 0.124 µM) | > 50 | 0.4 (≈ 0.622 µM) |  |
| COc1ccc(F)cc1CCn1c(=O)n(C(C)(C)C(=O)NC(C)C)c(=O)c2c(C)c(-n3cccn3)sc21 [Compound I-329] |  |  |  |  |  |  |  |  | 50 (≈ 94.8 µM) | 50 (≈ 94.8 µM) | > 50 | 10 (≈ 19 µM) | 50 (≈ 94.8 µM) | 2 (≈ 3.79 µM) | > 50 | 2 (≈ 3.79 µM) |  |
| COc1ccc(F)cc1[C@H](Cn1c(=O)n([C@@H](C)C(=O)N2CCCC2)c(=O)c2c(C)c(-n3nccn3)sc21)OC(C)C [Compound I-058] | 0.4 (≈ 0.684 µM) | 0.08 (≈ 0.137 µM) | ≥ 10 | 0.4 (≈ 0.684 µM) | 0.08 (≈ 0.137 µM) | 0.08 (≈ 0.137 µM) | > 50 | 0.08 (≈ 0.137 µM) |  |  |  |  |  |  |  |  |  |
| COc1ccc(F)cc1[C@H](Cn1c(=O)n(CC(=O)NC(C)C)c(=O)c2c(C)c(-n3nccn3)sc21)OC(C)C [Compound I-060] | ≥ 2 | 0.4 (≈ 0.716 µM) | > 50 | 0.4 (≈ 0.716 µM) | > 50 | 0.08 (≈ 0.143 µM) | > 50 | 0.4 (≈ 0.716 µM) |  |  |  |  |  |  |  |  |  |
| COc1ccc(F)cc1[C@H](Cn1c(=O)n(C(C)(C)C(N)=O)c(=O)c2c(C)c(-n3nccn3)sc21)OC1CCC(=O)CC1 [Compound I-124] | 2 (≈ 3.34 µM) | ≥ 2 | 50 (≈ 83.5 µM) | ≥ 0.4 | 10 (≈ 16.7 µM) | 0.4 (≈ 0.668 µM) | > 50 | 10 (≈ 16.7 µM) |  |  |  |  |  |  |  |  |  |
| Cc1c(-n2nccn2)sc2c1c(=O)n(C(C)(C)C(=O)NC(C)C)c(=O)n2CCc1cc(F)ccc1OCCC#N [Compound I-340] |  |  |  |  |  |  |  |  | 50 (≈ 88.1 µM) | 50 (≈ 88.1 µM) | > 50 | 10 (≈ 17.6 µM) | 50 (≈ 88.1 µM) | 2 (≈ 3.52 µM) | > 50 | 2 (≈ 3.52 µM) |  |
